For experiment [1], the target named is T1, AHR (Mus musculus, UniProt P30561).
T1 sequence (P30561 10-805): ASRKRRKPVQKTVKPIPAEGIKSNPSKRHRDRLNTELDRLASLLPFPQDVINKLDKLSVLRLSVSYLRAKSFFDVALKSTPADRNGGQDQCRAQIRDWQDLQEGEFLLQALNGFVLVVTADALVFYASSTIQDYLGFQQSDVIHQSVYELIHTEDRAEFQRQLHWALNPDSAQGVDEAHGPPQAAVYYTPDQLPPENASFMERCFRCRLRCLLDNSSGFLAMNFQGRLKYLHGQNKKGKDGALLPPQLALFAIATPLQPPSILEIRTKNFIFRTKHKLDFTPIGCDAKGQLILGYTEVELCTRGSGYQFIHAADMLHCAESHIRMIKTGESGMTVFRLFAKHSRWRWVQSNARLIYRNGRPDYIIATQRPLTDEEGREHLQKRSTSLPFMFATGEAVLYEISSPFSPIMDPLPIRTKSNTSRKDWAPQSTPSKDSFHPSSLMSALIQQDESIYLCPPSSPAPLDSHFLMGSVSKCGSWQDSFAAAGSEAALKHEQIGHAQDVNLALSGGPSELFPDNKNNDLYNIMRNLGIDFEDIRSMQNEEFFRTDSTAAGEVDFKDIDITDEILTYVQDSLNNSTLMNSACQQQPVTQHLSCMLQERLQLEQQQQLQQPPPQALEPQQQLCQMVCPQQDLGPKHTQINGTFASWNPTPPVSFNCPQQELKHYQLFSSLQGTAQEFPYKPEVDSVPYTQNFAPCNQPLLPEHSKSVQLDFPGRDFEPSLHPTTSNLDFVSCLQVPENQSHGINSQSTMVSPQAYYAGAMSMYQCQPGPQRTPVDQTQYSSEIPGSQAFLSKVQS
Briefly: AHR-dependent Cyp1A1 expression (P450-Glo) in mouse Hepa1.6 cells stimulated with VAF347. Type of experiment: cell-based. The note with it: read-out: IC50, AHR-dependent expression of Cyp1A1; murine Hepa1.6 cells, 2 μM VAF347, 24 hours, average. On the procedure: The ability of Compound A to inhibit AHR-dependent Cyp1A1 gene expression was examined in vitro by measuring changes in Cyp1A1 enzymatic activity in 2 rodent hepatoma cell lines following AHR agonist stimulation. Mouse Hepa1.6 and rat H411E hepatoma cells were treated with AHR agonists VAF347 and L-kynurenine, respectively, in the presence of Compound A at multiple concentrations for 24 hours. The inhibition of Cyp1A1 expression was subsequently evaluated by measuring Cyp1A1 enzyme activity using P450-Glo assays.

The target in experiment [2] is T2, AHR (Homo sapiens, UniProt P35869).
T2 sequence (P35869 11-848): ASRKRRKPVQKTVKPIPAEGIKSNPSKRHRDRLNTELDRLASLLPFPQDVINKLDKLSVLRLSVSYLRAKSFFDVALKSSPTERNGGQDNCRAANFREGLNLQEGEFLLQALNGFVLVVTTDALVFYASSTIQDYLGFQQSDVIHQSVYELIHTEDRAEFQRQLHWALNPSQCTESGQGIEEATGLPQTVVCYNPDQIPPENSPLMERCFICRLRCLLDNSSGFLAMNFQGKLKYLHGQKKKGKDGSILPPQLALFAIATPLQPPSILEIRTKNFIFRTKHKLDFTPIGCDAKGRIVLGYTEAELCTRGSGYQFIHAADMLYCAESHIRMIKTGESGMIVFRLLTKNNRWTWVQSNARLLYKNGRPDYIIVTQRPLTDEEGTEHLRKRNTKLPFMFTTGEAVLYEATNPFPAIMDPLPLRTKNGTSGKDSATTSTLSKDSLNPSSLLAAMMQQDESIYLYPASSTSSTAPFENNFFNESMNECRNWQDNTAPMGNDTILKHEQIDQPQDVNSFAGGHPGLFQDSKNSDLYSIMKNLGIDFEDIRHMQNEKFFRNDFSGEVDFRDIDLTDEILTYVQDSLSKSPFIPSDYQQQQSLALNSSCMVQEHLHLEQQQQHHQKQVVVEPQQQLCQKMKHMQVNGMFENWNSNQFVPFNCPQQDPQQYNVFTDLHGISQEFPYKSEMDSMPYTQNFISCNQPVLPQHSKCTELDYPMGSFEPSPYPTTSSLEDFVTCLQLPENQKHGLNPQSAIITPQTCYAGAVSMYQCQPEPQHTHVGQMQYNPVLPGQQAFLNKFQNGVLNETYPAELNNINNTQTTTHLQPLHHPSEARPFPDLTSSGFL
Briefly: HepG2 DRE-Luc reporter assay, VAF347-stimulated luciferase expression. The note with it: 80 nM VAF347, n=2. In kind it is cell-based. Details: endogenous in cells; host or cells: HepG2 DRE-Luc reporter cell line. As to the method:
In vitro experiments were conducted to examine the inhibitory activity of Compound A for AHR-mediated transcriptional activation in the HepG2 DRE-Luc reporter cell line. This human hepatoma cell line stably expresses a luciferase reporter gene under control of AHR-responsive DRE enhancer elements (Han, 2004). HepG2 DRE-Luc reporter cells were treated with 80 nM VAF347 to activate AHR.
The inhibitory activity of the human Compound A metabolites, Compound B and Compound C was also determined in the HepG2 DRE-Luc cell line. Reporter cells were stimulated with 80 nM VAF347 and each metabolite at multiple concentrations.
(In general: Reporter assays use an easily measured gene product as a stand-in for the process of interest.)

Among the data in patent US20230026232A1, “AHR INHIBITORS AND USES THEREOF” (Ikena Oncology, Inc., priority 2019, published 2023) are IC50 values, retold here.

Structures are written as SMILES.

Usually IC50 stands for the concentration that gives 50% inhibition. Turning to `CC(C)c1cnn2c(N[C@@H]3CCc4[nH]c5ccccc5c4C3)nc(-c3cncc(F)c3)nc12` [Compound A, (R)—N-(2-(5-fluoropyridin-3-yl)-8-isopropylpyrazolo[1,5-a][1,3,5]triazin-4-yl)-2,3,4,9-tetrahydro-1H-carbazol-3-amine], the IC50 at AHR [1] is 36 nM; against AHR [2], 91 nM.
